Data on two compounds can be found in patent publication US5223415A, “Biosynthetic production of 7-[1',2',6',7',8',8a'(R)-hexahydro-2'(S),6'(R)-dimethyl-8'(S)-hydroxy-1' (S)-naphthyl]-3(R),5(R)-dihydroxyheptanoic acid (triol acid)” (Merck & Co., Inc., priority 1992, dated 1993).

The test system of series [1] is purified Clonostachys compactiuscula esterase. It counts as biochemical. The conditions noted are these: within 16 h; enzyme 4.0 or 40.0 microgram/ml, simvastatin 10 or 35 mM, pH 7.8 or 9.5, methanol 0-20% v/v (conditions listed in table 1). The protocol:
Clonostachys compactiuscula esterase was purified from 57 g mycelial cells which had been grown up in medium EN using the methods detailed in Examples 1 and 3. The use of a Pharmacia HR 10/10 MONO Q® column allowed the application of 85 mL of crude cell-free extract per purification run. In total 0.89 mg of purified esterase was obtained (in a volume of 10 mL) which was then concentrated to 0.175 mg protein/mL by ultrafiltration using a 10,000 molecular weight cut-off CENTRIPREP® device (AMICON®).
Other conditions which were varied were pH (7.8 and 9.5 were assessed) and methanol concentration (0, 10 and 20% [v/v, final concentration]). The reactions were buffered by the inclusion of either 100 mM TRIS (in the case of reactions carried out at pH 7.8) or 100 mM glycine […]. Greater than 90% hydrolysis of residual lovastatin acid to triol acid was obtained within 16 h under the following conditions: […]

Series [2] concerns crude homogenate of Clonostachys compactiuscula. It counts as biochemical. The settings on record: equal volumes of crude homogenate (about 0.5 mg/ml protein) and lovastatin acid ammonium salt 5 g/L, 29° C., within 2 hrs. The protocol: Clonostachys compactiuscula ATCC 38009 was grown in 250 ml shake flasks containing 12 ml of medium EN at 29° C. for 3 days. Lovastatin ammonium salt was added to give a concentration of 2.5 g/L and fermentation was continued for 2 additional days. To prepare the crude homogenate, the culture was harvested by centrifugation at 3000 rpm for 10 minutes, after which it was washed with 50 mM of N-tris(hydroxymethyl)methyl-2-aminoethanesulfonic acid (TES) buffer, pH 7.7. The culture medium was again centrifuged and the cell mass was chilled on ice and then subjected to grinding in a mortar and pestle containing glass fragments and powdered dry ice. The contents of 1 shake flask was resuspended in 2.0 ml of 50 mM TES buffer and centrifuged at 6000 rpm for 10 minutes to remove cell debris and glass fragments. The supernatant was used as the source of crude homogenate with protein concentration of approximately 0.5 mg/ml.
In order to carry out the biotransformation, one volume of crude homogenate was combined with an equal volume of lovastatin acid ammonium salt (5 g/L), and the mixture was incubated at 29° C. Using this method, 80-90% conversion of lovastatin acid to triol acid was observed within 2 hrs.

Series [3] relates to crude hydrolase (6000 rpm supernatant) of Clonostachys compactiuscula ATCC 38009. The settings on record: lovastatin 1.4 mM and simvastatin 18.6 mM ammonium salts solution, 50 mM Tris pH 7.8, methanol, 29 C., after 17 h.
Description: The resulting homogenized, frozen powder was transferred to a suitable tube and the material remaining in the mortar washed into the same tube using a minimal volume of 50 mM Tris, pH 7.8. The mixture was then allowed to thaw and then centrifuged at 6000 rpm for 10 minutes to remove large cell debris and glass.
The 6000 rpm supernatant was used as a crude source of hydrolase and 0.8 mL was mixed with 0.2 mL methanol and 1.0 mL of a solution of simvastatin (18.6 mM and lovastatin (1.4 mM) ammonium salts in 50 MM Tris, pH 7.8.) The reaction mixture was incubated at 29 C. and sampled after 1 h, 2 h, and 17 h by removing 0.1 mL and diluting with 0.9 mL methanol. The samples were then subjected to analysis by HPLC using a Whatman C-8 column as stationary phase and a 60:40 mixture of acetonitrile: 0.5% phosphoric acid as mobile phase; under these conditions the respective retention times for simvastatin, lovastatin and triol ammonium salts are 4.4 min., 3.8 min., and 2.5 min.
In series [4] the test system is purified lovastatin acid hydrolase from Clonostachys compactiuscula. The series is described as follows: Km and specific activity of purified hydrolase with lovastatin ammonium salt as substrate. In kind it is biochemical. The settings on record: for specific activity: saturating substrate conditions. The protocol:
A hydrolytic enzyme which carries out the biotransformation of lovastatin acid to triol acid was purified by Fast Protein Liquid Chromatography (FPLC*) employing a MONO Q® anion exchange column to near homogeneity from homogenates of Clonostachys compactiuscula employing the procedures described below.
The supernatant from the 6,000 rpm centrifugation as in Example 2 above, but where 50 mM of tris(hydroxymethyl)aminomethane (TRIS) buffer (pH 7.8) is substituted for 50 mM TES buffer, was centrifuged at 15,000 rpm for 20 minutes and the resulting supernatant filtered through a […] filter. Batches (10 mL) of filtrate containing 0.3-0.5 mg/mL protein were then applied at a rate of 1.0-2.0 mL/minute to a Pharmacia MONO Q® (HR 5/5) anion exchange column connected to a Pharmacia Fast Protein Liquid Chromatography (FPLC) system.
After allowing binding of the anionic proteins to the column matrix, the hydrolase was specifically eluted by the application of a linear gradient of sodium chloride (0-500 mM) in 20 mM TRIS, pH 7.8. […] When the latter substrate was used, the hydrolytic reaction was monitored spectrophotometrically at 410 nm essentially as described by Lawrence, R. C. et al. in J. Gen. Microbiol. (1967) 48, 401-418.
Using the purified enzyme preparation, the biotransformation was carried out in accordance with the procedures described above in Examples 1, 2, 4 and 6, and an estimate was made of the hydrolase's Km and specific activity with lovastatin ammonium salt as substrate. […]
After allowing binding of the anionic proteins to the column matrix, the hydrolase was specifically eluted by the application of a linear gradient of sodium chloride (0-500 mM). […] When the latter substrate was used, the hydrolytic reaction was monitored spectrophotometrically at 410 nm essentially as described by Lawrence, R. C. et al. in J. Gen. […]

Each structure is given as a SMILES string. Counter-ions that a name gives are not always drawn.

On to `CC[C@H](C)C(=O)O[C@H]1C[C@@H](C)C=C2C=C[C@H](C)[C@H](CC[C@@H](O)C[C@@H](O)CC(=O)O)[C@H]21` [lovastatin acid], for which the “hydrolysis of residual lovastatin acid to triol acid” value in series [1] is listed as “Greater than 90%”. Also, the “conversion of lovastatin acid to triol acid” value in series [2] is listed as 80-90%.
Consider `CC[C@H](C)C(=O)O[C@H]1C[C@@H](C)C=C2C=C[C@H](C)[C@H](CC[C@@H](O)C[C@@H](O)CC(=O)O)[C@H]21` [lovastatin ammonium salt], for which, in series [3], the “conversion of lovastatin (HPLC area percent reduction)” value is recorded as “greater than 99%”. For the same compound, in series [4] (lovastatin ammonium salt as substrate, purified enzyme preparation), the Km was 4.14 mM. Also, the specific activity was 0.04 mmol lovastatin ammonium salt hydrolyzed/mg protein per minute in series [4] (Example 3) and 0.11 mmol lovastatin ammonium salt/mg protein per hour in series [4] (Example 4).

The term Km denotes the substrate concentration at which the rate is half of its maximum.
